Measured values published in BindingDB's records for patent US12391687 (Shanghai Ennovabio Pharmaceuticals, 2025).

Experiments:
[1] = target: High affinity nerve growth factor receptor (Homo sapiens, UniProt P04629); experiment: In Vitro Activity Test on TRKA, TRKB, TRKC Kinase
Method: (§1) Table 1: Experimental MethodThe tested compounds were subjected to 3-fold serial dilution to reach a final concentration of 1 μM to 0.05 nM (10 concentrations), duplicates for each concentration; and the DMSO concentration in the detection reaction was 1%.TRKA Enzyme Reaction:0.2 ng/μL TRKA protein kinase, 1 μM TK Substrate-biotin polypeptide substrate, 14.68 μM ATP, 1×enzymatic buffer, 5 mM MgCl2, and 1 mM DTT. The assay plate was White Proxiplate384-Plus plate (PerkinElmer), and the reaction was incubated at room temperature for 40 min, and the assay volume was 10 μL.TRKB Enzyme Reaction:0.037 ng/μL TRKB protein kinase, 1 μM TK Substrate-biotin polypeptide substrate, 4.77 μM ATP, 1× enzymatic buffer, 5 mM MgCl2, 1 mM MnCl2 and 1 mM DTT. The assay plate was White Proxiplate 384-Plus plate (PerkinElmer), the reaction was incubated at room temperature for 50 min, and the assay volume was 10 μL.TRKC Enzyme Reaction:0.037 ng/μL TRKC protein kinase, 1 μM TK Substrate-biotin polypeptide substrate, 25.64 μM ATP, 1× enzymatic buffer, 5 mM MgCl2, and 1 mM DTT. The detection plate was White Proxiplate 384-Plus plate (PerkinElmer), the reaction was incubated at room temperature for 40 min, and the assay volume was 10 μL.Detection Steps:10 μL of detection reagent (containing 0.125 μM SA-XL665 and 5 μL 1×TK-Antibody) was added to the plate and incubated overnight at room temperature. Synergy Neo 2 was used to read the plate.

[2] = target: NT-3 growth factor receptor (Homo sapiens, UniProt Q16288); experiment: In Vitro Activity Test on TRKA, TRKB, TRKC Kinase
NT-3 growth factor receptor, sequence (Q16288 whole entry): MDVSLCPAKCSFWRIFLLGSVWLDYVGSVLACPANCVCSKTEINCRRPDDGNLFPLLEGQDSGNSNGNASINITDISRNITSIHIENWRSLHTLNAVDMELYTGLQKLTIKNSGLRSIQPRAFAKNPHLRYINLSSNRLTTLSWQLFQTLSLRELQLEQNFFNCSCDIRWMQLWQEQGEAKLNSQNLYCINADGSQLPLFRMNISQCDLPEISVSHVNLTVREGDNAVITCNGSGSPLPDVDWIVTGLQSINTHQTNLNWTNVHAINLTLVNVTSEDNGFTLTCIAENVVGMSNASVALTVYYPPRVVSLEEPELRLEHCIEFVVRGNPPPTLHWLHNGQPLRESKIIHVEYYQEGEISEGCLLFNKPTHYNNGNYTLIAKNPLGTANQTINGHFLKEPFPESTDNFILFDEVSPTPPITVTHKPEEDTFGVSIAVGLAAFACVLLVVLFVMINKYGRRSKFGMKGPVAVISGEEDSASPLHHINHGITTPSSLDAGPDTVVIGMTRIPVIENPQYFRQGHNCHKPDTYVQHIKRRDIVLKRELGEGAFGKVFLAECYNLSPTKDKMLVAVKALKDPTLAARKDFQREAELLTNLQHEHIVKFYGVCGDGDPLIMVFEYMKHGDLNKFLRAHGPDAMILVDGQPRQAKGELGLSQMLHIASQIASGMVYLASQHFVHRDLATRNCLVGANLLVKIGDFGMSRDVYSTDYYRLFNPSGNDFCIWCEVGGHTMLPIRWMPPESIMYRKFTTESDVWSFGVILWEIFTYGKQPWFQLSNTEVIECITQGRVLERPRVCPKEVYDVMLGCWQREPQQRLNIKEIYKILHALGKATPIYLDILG
Method: as §1

[3] = target: BDNF/NT-3 growth factors receptor (Homo sapiens, UniProt Q16620); experiment: In Vitro Activity Test on TRKA, TRKB, TRKC Kinase
BDNF/NT-3 growth factors receptor, sequence (Q16620 whole entry): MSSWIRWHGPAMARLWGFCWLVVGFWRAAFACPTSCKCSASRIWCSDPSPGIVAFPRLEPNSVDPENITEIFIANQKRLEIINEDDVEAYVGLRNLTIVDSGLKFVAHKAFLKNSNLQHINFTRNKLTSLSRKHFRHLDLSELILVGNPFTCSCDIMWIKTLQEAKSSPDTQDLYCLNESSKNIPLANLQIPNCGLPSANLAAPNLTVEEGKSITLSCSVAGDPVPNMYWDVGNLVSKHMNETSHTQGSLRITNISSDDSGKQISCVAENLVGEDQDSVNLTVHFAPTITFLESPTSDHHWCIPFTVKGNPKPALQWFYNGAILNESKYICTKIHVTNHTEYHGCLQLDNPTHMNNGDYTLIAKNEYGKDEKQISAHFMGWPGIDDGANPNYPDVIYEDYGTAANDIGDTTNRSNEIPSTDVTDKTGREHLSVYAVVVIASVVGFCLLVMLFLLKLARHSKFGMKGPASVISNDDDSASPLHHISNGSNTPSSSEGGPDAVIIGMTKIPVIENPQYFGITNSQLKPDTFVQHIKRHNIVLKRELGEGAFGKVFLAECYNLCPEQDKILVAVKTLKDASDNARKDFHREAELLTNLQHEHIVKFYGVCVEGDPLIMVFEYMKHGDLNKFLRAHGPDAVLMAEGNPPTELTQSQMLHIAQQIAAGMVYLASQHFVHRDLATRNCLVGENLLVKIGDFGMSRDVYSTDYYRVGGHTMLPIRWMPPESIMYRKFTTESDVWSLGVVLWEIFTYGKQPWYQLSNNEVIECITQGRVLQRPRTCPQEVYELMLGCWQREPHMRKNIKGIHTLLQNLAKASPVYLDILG
Method: as §1

[4] = target: High affinity nerve growth factor receptor [G595R] (Homo sapiens, UniProt P04629, G595R); experiment: In Vitro Activity Test on Mutant TRKA (G595R)
High affinity nerve growth factor receptor [G595R], sequence (P04629 33-796 G595R limits assumed): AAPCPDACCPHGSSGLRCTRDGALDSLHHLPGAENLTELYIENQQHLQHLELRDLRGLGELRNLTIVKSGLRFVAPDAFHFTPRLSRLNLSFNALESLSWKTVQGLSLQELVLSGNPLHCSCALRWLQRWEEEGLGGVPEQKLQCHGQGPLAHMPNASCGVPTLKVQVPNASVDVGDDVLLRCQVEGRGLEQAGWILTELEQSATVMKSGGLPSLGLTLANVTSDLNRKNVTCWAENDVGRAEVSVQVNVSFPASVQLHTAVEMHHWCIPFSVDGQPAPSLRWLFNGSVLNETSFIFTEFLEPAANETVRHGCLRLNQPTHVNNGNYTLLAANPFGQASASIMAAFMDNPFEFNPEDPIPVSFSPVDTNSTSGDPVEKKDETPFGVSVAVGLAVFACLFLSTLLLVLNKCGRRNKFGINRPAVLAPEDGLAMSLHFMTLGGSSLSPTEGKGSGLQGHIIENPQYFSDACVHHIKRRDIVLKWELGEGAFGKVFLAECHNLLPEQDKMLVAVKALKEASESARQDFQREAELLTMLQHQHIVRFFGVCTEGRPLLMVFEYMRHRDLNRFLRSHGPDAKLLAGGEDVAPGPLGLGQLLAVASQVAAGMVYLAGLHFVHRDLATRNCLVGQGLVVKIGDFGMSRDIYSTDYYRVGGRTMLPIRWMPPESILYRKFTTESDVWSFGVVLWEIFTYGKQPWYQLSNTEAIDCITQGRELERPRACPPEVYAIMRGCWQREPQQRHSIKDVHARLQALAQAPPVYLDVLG
Method: Table 3: Experimental MaterialsThe recombinant human TRKA (G595R), TRKA (G667C) and TRKC (G623R) proteins were purchased from SignalChem. HTRF kinEASE TK kit was purchased from Cisbio Bioassays. Synergy Neo 2 of Biotek was used to read the plate. TRKA (G595R) Enzyme Reaction:0.12 ng/μL TRKA (G595R) kinase, 1 μM TK Substrate-biotin polypeptide substrate, 4.5 μM ATP, 1× enzymatic buffer, 5 mM MgCl2, and 1 mM DTT. The assay plate was White Proxiplate384-Plus plate (PerkinElmer), and the reaction was incubated at room temperature for 30 min, and the assay volume was 10 μL. Detection Steps:10 μL of detection reagent (containing 0.125 μM SA-XL665 and 5 μL 1×TK-Antibody) was added to the plate and incubated overnight at room temperature, and Synergy Neo 2 was used to read the plate.

High affinity nerve growth factor receptor, sequence (P04629 whole entry): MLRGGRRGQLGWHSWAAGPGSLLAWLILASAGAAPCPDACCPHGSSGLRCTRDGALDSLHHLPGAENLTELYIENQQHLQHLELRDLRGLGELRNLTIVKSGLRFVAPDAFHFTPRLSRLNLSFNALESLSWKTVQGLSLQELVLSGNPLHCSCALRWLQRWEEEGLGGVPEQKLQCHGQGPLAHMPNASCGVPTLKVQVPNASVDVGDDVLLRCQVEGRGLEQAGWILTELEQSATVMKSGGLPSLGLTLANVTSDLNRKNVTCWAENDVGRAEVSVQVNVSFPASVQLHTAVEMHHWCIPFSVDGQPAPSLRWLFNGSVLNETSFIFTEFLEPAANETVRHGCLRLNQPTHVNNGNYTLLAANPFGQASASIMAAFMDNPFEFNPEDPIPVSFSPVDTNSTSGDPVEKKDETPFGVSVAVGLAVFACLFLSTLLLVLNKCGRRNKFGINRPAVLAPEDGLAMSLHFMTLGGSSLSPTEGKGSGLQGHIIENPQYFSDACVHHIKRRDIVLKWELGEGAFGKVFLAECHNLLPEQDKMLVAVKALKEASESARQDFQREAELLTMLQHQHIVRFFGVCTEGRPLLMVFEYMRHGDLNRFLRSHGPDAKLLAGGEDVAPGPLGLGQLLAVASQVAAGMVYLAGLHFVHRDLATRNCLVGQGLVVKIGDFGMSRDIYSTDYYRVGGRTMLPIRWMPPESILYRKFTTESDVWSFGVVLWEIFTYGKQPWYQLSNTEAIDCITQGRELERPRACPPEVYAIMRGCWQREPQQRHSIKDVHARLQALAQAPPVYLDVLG

| Structure (SMILES) | IC50 [1] [nM] | IC50 [2] [nM] | IC50 [3] [nM] | IC50 [4] [nM] |
| --- | --- | --- | --- | --- |
| CNC(=O)c1cnc2[nH]nc(N3CCC[C@@H]3c3cc(F)ccc3F)c2c1 [US12391687, Example 7] | < 10 | < 10 | < 10 | – |
| O=C(Nc1cnc2[nH]nc(N3C[C@@H](F)C[C@@H]3c3cc(F)ccc3F)c2c1)c1ccc(N2CC[C@H](O)C2)nc1 [US12391687, Example 11] | – | < 10 | < 1 | < 10 |
| NC(=O)CCNC(=O)c1cnc2[nH]nc(N3CCC[C@@H]3c3cc(F)ccc3F)c2c1 [US12391687, Example 15] | < 10 | < 10 | < 10 | – |

Further lines, results first:

| IC50 [1] [nM] | IC50 [2] [nM] | IC50 [3] [nM] | IC50 [4] [nM] | Structure (SMILES) |
| --- | --- | --- | --- | --- |
| < 1 | < 1 | < 1 | – | Fc1ccc(F)c([C@H]2C[C@H](F)CN2c2n[nH]c3ncc(-c4cnn(C5CNC5)c4)cc23)c1 [US12391687, Example 26] |
| < 1 | < 1 | < 1 | – | CC(C)OCc1nnc(-c2cnc3[nH]nc(N4C[C@@H](F)C[C@@H]4c4cc(F)ccc4F)c3c2)o1 [US12391687, Example 42] |
